Some test systems named below: 786-0; A498; A549; CAKI-1; COLO 205; HCT-15; Hs-578T; KM12; MCF7; MDA-MB-231; Malme-3M; OVCAR-3; RPMI-8226; SF-295; SK-MEL-2; SNB-75; UACC-62; HOP-92; LOX IMVI; SR.
Holding throughout (assay): DTP human tumour cell line panel, 48 h

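Step 1: Grow cells in 96-well plates. Step 2: Expose to compound for 48 hours at 5 concentrations. Step 3: Interpolate endpoints linearly; if unreached, use highest concentration. Abbreviation: GI50, concentration required for 50% inhibition of growth.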 Activity calls are given as the source filed them. Cut-off read from the data, not from the text of the source: active = GI50 up to about 1.1 µM and inactive = higher.

As usually defined, the GI50 is the concentration at which growth is held to half of that of the control. Turning to `CC(C)(CC#N)c1cc(CC(C)(C)c2cc(CC(C)(C)c3cc(C(C)(C)C4(C)OCCO4)no3)no2)no1`, the GI50 with 786-0 was 17 µM (inactive); in the assay with A498 it was 28.9 µM (inactive); in the assay with A549 it was > 100 µM (inactive); in the assay on CAKI-1, 22.4 µM (inactive); in the assay on COLO 205, > 100 µM (inactive); in the assay with HCT-15, 94.2 µM. Besides, the GI50 with Hs-578T was 22.8 µM (inactive); in the assay with KM12, > 100 µM (inactive); in the assay with MCF7, 19.1 µM (inactive); in the assay with MDA-MB-231 it was 22.4 µM (inactive); in the assay with Malme-3M it was 91 µM (inactive); in the assay with OVCAR-3, 56 µM (inactive). The GI50 was > 100 µM (inactive) in the assay with RPMI-8226; 31 µM (inactive) with SF-295; 42.7 µM (inactive) with SK-MEL-2; 14.7 µM (inactive) with SNB-75; 41.9 µM (inactive) in the assay on UACC-62.
As to `CCc1cc2c(oc3cc4ccccc4cc32)c(=O)[nH]1`, the GI50 was > 10 µM (inactive) with 786-0; > 10 µM (inactive) in the assay with A549; more than 10 µM with HCT-15; > 10 µM (inactive) with HOP-92; > 10 µM (inactive) in the assay with Hs-578T; > 10 µM (inactive) in the assay with KM12. For the same compound, the GI50 with LOX IMVI, with MDA-MB-231, with Malme-3M, in the assay on OVCAR-3, with SF-295 and in the assay on SK-MEL-2 was > 10 µM (inactive) in each case. In addition, the GI50 in the assay with SNB-75 and in the assay on SR was > 10 µM (inactive) in each case.
Turning to `CC(C)(CO)CNc1nc(N)nc(Cl)c1N`, the GI50 was > 100 µM (inactive) in the assay with 786-0; > 100 µM (inactive) in the assay with A549; > 100 µM (inactive) with CAKI-1; > 100 µM (inactive) in the assay with COLO 205; more than 100 µM in the assay on HCT-15; > 100 µM (inactive) in the assay with HOP-92. In addition, the GI50 in the assay on Hs-578T, with KM12, with LOX IMVI, in the assay on MCF7, in the assay with MDA-MB-231 and in the assay with Malme-3M was > 100 µM (inactive) each time. The GI50 in the assay on OVCAR-3, in the assay with SF-295, in the assay on SK-MEL-2, in the assay on SNB-75 and in the assay with UACC-62 was > 100 µM (inactive) each time.
For the compound `O=S(=O)(O)c1cc(Cl)c(O)c2ncc(Cl)cc12`, the GI50 in the assay on 786-0 was 92 µM (inactive); with A498 it was > 100 µM (inactive); in the assay with A549, 77.1 µM (inactive); with CAKI-1 it was > 100 µM (inactive); with COLO 205, > 100 µM (inactive); in the assay with HCT-15 it was 41.7 µM. The GI50 in the assay on HOP-92 is 87.1 µM (inactive); in the assay on KM12 it was > 100 µM (inactive); in the assay on LOX IMVI, 31 µM (inactive); with MCF7 it was 51.8 µM (inactive); in the assay with MDA-MB-231, > 100 µM (inactive); in the assay on OVCAR-3, 69.2 µM (inactive). Further, the GI50 in the assay on RPMI-8226 is 45.2 µM (inactive); with SF-295, > 100 µM (inactive); in the assay with SK-MEL-2, > 100 µM (inactive); in the assay with SNB-75 it was > 100 µM (inactive); in the assay with SR, 32.2 µM (inactive); in the assay on UACC-62 it was 50.1 µM (inactive).
`O=c1c2ccccc2sc2ccccc12`: the GI50 in the assay with 786-0 is > 100 µM (inactive); in the assay with A498, > 100 µM (inactive); in the assay with A549 it was > 100 µM (inactive); in the assay on CAKI-1 it was > 100 µM (inactive); in the assay with COLO 205, > 100 µM (inactive); in the assay with HCT-15 it was more than 100 µM. Besides, the GI50 in the assay with HOP-92, in the assay with Hs-578T, with KM12, in the assay on LOX IMVI, with MCF7 and with MDA-MB-231 was > 100 µM (inactive) each time. Besides, the GI50 in the assay with Malme-3M, in the assay with OVCAR-3, with RPMI-8226, with SF-295, with SK-MEL-2 and in the assay with SNB-75 was > 100 µM (inactive) throughout. Further, the GI50 in the assay with UACC-62 was > 100 µM (inactive).
In the case of `CCN(CC)CCSc1nc(-c2c[nH]c3nc(C)ccc3c2=O)n[nH]1`, the GI50 with 786-0 is > 100 µM (inactive); with A498 it was > 100 µM (inactive); in the assay with A549, > 100 µM (inactive); in the assay with CAKI-1, > 100 µM (inactive); with COLO 205, > 100 µM (inactive); in the assay on HCT-15 it was more than 100 µM. The GI50 in the assay on Hs-578T, in the assay with KM12, with LOX IMVI, with MCF7, in the assay on MDA-MB-231 and with Malme-3M was > 100 µM (inactive) each time. Further, the GI50 with OVCAR-3, with RPMI-8226, in the assay on SF-295, in the assay with SK-MEL-2 and in the assay with UACC-62 was > 100 µM (inactive) throughout.
In the case of `Cc1cccc(-c2cc(O)c3c(C)ccnc3n2)c1`, the 50% growth inhibitory concentration (GI50) was 0.564 µM (active) in the assay with 786-0; 0.791 µM (active) in the assay with A498; 0.71 µM (active) with A549; 0.39 µM (active) in the assay with CAKI-1; 0.208 µM (active) in the assay on COLO 205; 0.261 µM with HCT-15. For the same compound, the concentration for 50% growth inhibition (GI50) in the assay on Hs-578T was 0.356 µM (active); in the assay on KM12, 0.209 µM (active); with LOX IMVI it was 0.667 µM (active); in the assay on MCF7, 0.319 µM (active); in the assay with MDA-MB-231, 0.745 µM (active); with OVCAR-3, 0.256 µM (active). Besides, the concentration for 50% growth inhibition (GI50) in the assay with RPMI-8226 was 0.468 µM (active); in the assay on SF-295, 0.346 µM (active); in the assay with SK-MEL-2 it was 0.321 µM (active); in the assay with SNB-75 it was 0.36 µM (active); in the assay on UACC-62, 0.461 µM (active).
Regarding `N=NCC(=O)OC(COCc1ccccc1)COCc1ccccc1`, the GI50 in the assay with 786-0 is > 100 µM (inactive); in the assay with A498 it was > 100 µM (inactive); in the assay on CAKI-1, 37.9 µM (inactive); with COLO 205, 96.4 µM (inactive); in the assay with HCT-15, more than 100 µM; in the assay on HOP-92, 10.2 µM (inactive). In addition, the GI50 in the assay with KM12 was 31.4 µM (inactive); with LOX IMVI, 93.5 µM (inactive); with MCF7 it was 65 µM (inactive); in the assay on MDA-MB-231, > 100 µM (inactive); in the assay on Malme-3M, > 100 µM (inactive); in the assay with OVCAR-3, > 100 µM (inactive). For the same compound, the GI50 is > 100 µM (inactive) with RPMI-8226; 95.5 µM (inactive) in the assay with SF-295; > 100 µM (inactive) in the assay with SK-MEL-2; > 100 µM (inactive) with SR; > 100 µM (inactive) with UACC-62.
Turning to `O=C(Nc1ccc(C(F)(F)F)cc1)NC(F)(F)F`, the GI50 was > 100 µM (inactive) in the assay on 786-0; > 100 µM (inactive) in the assay on A498; > 100 µM (inactive) in the assay with A549; 34.5 µM (inactive) in the assay on CAKI-1; > 100 µM (inactive) in the assay on COLO 205; more than 100 µM in the assay with HCT-15. Moreover, the GI50 with Hs-578T, with LOX IMVI, with RPMI-8226, in the assay on SK-MEL-2, with SNB-75 and in the assay with SR was > 100 µM (inactive) throughout.

(Values after ChEMBL document CHEMBL1201862, “PubChem BioAssay data set” (2004).)
